Data reported in patent US20250163002A1, “FUSED QUINONOXIME IMIDAZOLE, ONIUM DERIVATIVES THEREOF, PREPARATION AND USE THEREOF” (SHANGHAI JIAO TONG UNIVERSITY, priority 2022, published 2025).
Counter-ions that a name gives are not always drawn.

Key:
Assay type in all cases: cell-based
MCF-7 = assay: In vitro inhibition test for cancer cell proliferation (MTT), MCF-7; conditions: unit inferred
L929 = assay: In vitro cell proliferation inhibition test (MTT), L929; conditions: unit inferred
A549 = assay: In vitro inhibition test for cancer cell proliferation (MTT), A549; conditions: unit inferred
HeLa = assay: In vitro inhibition test for cancer cell proliferation (MTT), HeLa; conditions: 24 h or 48 h after addition, unit inferred
[1] = Homo sapiens, MCF7, 24 h or 48 h after addition
[2] = Mus musculus, L929, 24 h or 48 h after addition
[3] = Homo sapiens, A549, 24 h or 48 h after addition

Compound | IC50 (MCF-7; 24 h or 48 h after addition) | IC50 (L929; 24 h or 48 h after addition) | IC50 (A549; 24 h or 48 h after addition) | IC50 (HeLa) | IC50 (MCF-7; [1]) | IC50 (L929; [2]) | IC50 (A549; [3]) | IC50 (HeLa; Homo sapiens, HeLa)
CCCCn1c[n+](CC)c2c1C(=O)c1ccccc1C2=NOC [Compound 122, (E) and (Z)-1-butyl-3-ethyl-4-(methoxylimino)-9-oxo-4,9-dihydro-1H-naphthol[2,3-d]imidazole-3-iodide] | 33 µM | > 100 µM | 1.8 µM | 52 µM |  |  |  | 
C=CCON=C1c2ccccc2C(=O)c2c1[n+](C)cn2C [Compound 132, (E) and (Z)-4-((allyloxy)imino)-1,3-dimethyl-9-oxo-4,9-dihydro-1H-naphthol[2,3-d]imidazole-3-iodide] | 56.1 µM | 2.4 µM | 0.06 µM | 46.3 µM |  |  |  | 
CC[n+]1cn(C)c2c1C(=NOC)c1ccccc1C2=O [Compound 126, (E) and (Z)-3-ethyl-4-(methoxylimino)-1-methyl-9-oxo-4,9-dihydro-1H-naphthol[2,3-d]imidazole-3-iodide] | 12.2 µM | 85.2 µM | 0.59 µM | 39 µM |  |  |  | 
Cn1c[n+](C)c2c1C(=O)c1ccccc1C2=NOCc1ccc([N+](=O)[O-])cc1 [Compound 141, (E) and (Z)-1,3-dimethyl-4-(((4-nitrobenzyl)oxy)imino)-9-oxo-4,9-dihydro-1H-naphthol[2,3-d]imidazole-3-iodide] | 45.6 µM | 23.4 µM | 0.05 µM | 23.9 µM |  |  |  | 
C[n+]1cn(-c2cccc(F)c2)c2c1/C(=N/O)c1ccccc1C2=O [Compound 110, (E)-1-(3-fluorophenyl)-4-(hydroxylimino)-3-methyl-9-oxo-4,9-dihydro-1H-naphthol[2,3-d]imidazole-3-iodide] | 42.3 µM | > 100 µM | 17.2 µM | 49 µM |  |  |  | 
C[n+]1cn(C2CC2)c2c1/C(=N/O)c1ccccc1C2=O [Compound 99, (E)-1-cyclopropyl-4-(hydroxylimino)-3-methyl-9-oxo-4,9-dihydro-1H-naphthol[2,3-d]imidazole-3-iodide] | 1.63 µM | 19.8 µM | 1.72 µM | 5.74 µM |  |  |  | 
COc1ccc(CON=C2c3ccccc3C(=O)c3c2[n+](C)cn3C)cc1 [Compound 133, (E) and (Z)-4-(((4-methoxybenzyl)oxy)imino)-1,3-dimethyl-9-oxo-4,9-dihydro-1H-naphthol[2,3-d]imidazole-3-iodide] | 17.9 µM | 16 µM | 0.08 µM | 23.9 µM |  |  |  | 
C[n+]1cn(Cc2cccs2)c2c1/C(=N/O)c1ccccc1C2=O [Compound 106, (E)-4-(hydroxylimino)-3-methyl-9-oxo-1-(thiophene-2-yl-methyl)-4,9-dihydro-1H-naphthol[2,3-d]imidazole-3-iodide] | 20.2 µM | > 100 µM | 11.2 µM | 9.2 µM |  |  |  | 
CCC(C)Cn1c[n+](C)c2c1C(=O)c1ccccc1/C2=N\O (stereo not shown) [Compound 97, (E)-4-(hydroxylimino)-3-methyl-1-(2-methylbutyl)-9-oxo-4,9-dihydro-1H-naphthol[2,3-d]imidazole-3-iodide] | 1.05 µM | 74 µM | 1.37 µM | 1.97 µM |  |  |  | 
CCCCn1c[n+](C)c2c1C(=O)c1ccccc1/C2=N\O [Compound 94, (E)-1-butyl-4-(hydroxylimino)-3-methyl-9-oxo-4,9-dihydro-1H-naphthol[2,3-d]imidazole-3-iodide] |  |  |  |  | 0.84 µM | 39.2 µM | 0.67 µM | 1.43 µM
CCOC(=O)Cn1c[n+](C)c2c1C(=O)c1ccccc1/C2=N\O [Compound 103, (E)-1-(2-ethoxy-2-ethoxy)-4-(hydroxylimino)-3-methyl-9-oxo-4,9-dihydro-1H-naphthol[2,3-d]imidazole-3-iodide] | 1.63 µM | > 100 µM | 0.6 µM | 2.73 µM |  |  |  | 
C[n+]1cn(Cc2ccc(F)cc2)c2c1/C(=N/O)c1ccccc1C2=O [Compound 108, (E)-1-(4-fluorobenzyl)-4-(hydroxylimino)-3-methyl-9-oxo-4,9-dihydro-1H-naphthol[2,3-d]imidazole-3-iodide] | 1.63 µM | > 100 µM | 0.5 µM | 2.38 µM |  |  |  | 
CCCn1c[n+](C)c2c1C(=O)c1ccccc1/C2=N\O [Compound 93, (E)-4-(hydroxylimino)-3-methyl-9-oxo-1-propyl-4,9-dihydro-1H-naphthol[2,3-d]imidazole-3-iodide] | 1.43 µM | 32.7 µM | 1.03 µM | 2.18 µM |  |  |  | 
Cn1c[n+](C)c2c1C(=O)c1ccccc1C2=NOCc1ccccc1 [Compound 138, (E) and (Z)-4-((benzyloxy)imino)-1,3-dimethyl-9-oxo-4,9-dihydro-1H-naphthol[2,3-d]imidazole-3-iodide] | 5.9 µM | 25.9 µM | 0.004 µM | 4.2 µM |  |  |  | 
CC(C)n1c[n+](C)c2c1C(=O)c1ccccc1/C2=N\O [Compound 95, (E)-4-(hydroxylimino)-1-isopropyl-3-methyl-9-oxo-4,9-dihydro-1H-naphthol[2,3-d]imidazole-3-iodide] | 2 µM | 26.3 µM | 1.89 µM | 18.3 µM |  |  |  | 
C[n+]1cn(CC2OCCO2)c2c1/C(=N/O)c1ccccc1C2=O [Compound 107, (E)-1-((1,3-dioxoheterocycle-2-yl)methyl)-4-(hydroxylimino)-3-methyl-9-oxo-4,9-dihydro-1H-naphthol[2,3-d]imidazole-3-iodide] | 9.85 µM | > 100 µM | 0.6 µM | > 100 µM |  |  |  | 
C[n+]1cn(-c2ccc(F)c(Br)c2)c2c1/C(=N/O)c1ccccc1C2=O [Compound 117, (E)-1-(3-bromo-4-fluorophenyl)-4-(hydroxylimino)-3-methyl-9-oxo-4,9-dihydro-1H-naphthol[2,3-d]imidazole-3-iodide] | 67.7 µM | > 100 µM | 5.2 µM | 87.8 µM |  |  |  | 
COCCOCCOCCO/N=C1\c2ccccc2C(=O)c2c1[n+](C)cn2C [Compound 147, (E) and (Z)-4-((2-(2-(2-methoxyethoxy)ethoxy)ethoxy)imino)-1,3-dimethyl-9-oxo-4,9-dihydro-1H-naphthol[2,3-d]imidazole-3-iodide] |  |  |  |  | 26.8 µM | 15.7 µM | 0.02 µM | 13.2 µM
CCn1c[n+](C)c2c1C(=O)c1ccccc1/C2=N\O [Compound 92, (E)-1-ethyl-4-(hydroxylimino)-3-methyl-9-oxo-4,9-dihydro-1H-naphthol[2,3-d]imidazole-3-iodide] | 0.94 µM | 13.5 µM | 0.54 µM | 1.63 µM |  |  |  | 
CCCCn1c[n+](C)c2c1C(=O)c1ccccc1C2=NOC [Compound 119, (E) and (Z)-1-butyl-4-(methoxylimino)-3-methyl-9-oxo-4,9-dihydro-1H-naphthol[2,3-d]imidazole-3-iodide] | 18.1 µM | 4.6 µM | 0.52 µM | 33 µM |  |  |  | 
CC(C)=CCn1c[n+](C)c2c1C(=O)c1ccccc1/C2=N\O [Compound 101, (E)-4-(hydroxylimino)-3-methyl-1-(3-methyl-2-ene-1-yl)-9-oxo-4,9-dihydro-1H-naphthol[2,3-d]imidazole-3-iodide] | 0.87 µM | 13.1 µM | 0.64 µM | 1.8 µM |  |  |  | 
CCCCn1c[n+](C)c2c1C(=O)c1ccccc1C2=NOCc1ccccc1 [Compound 121, (E) and (Z)-4-((benzyloxy)imino)-1-butyl-3-methyl-9-oxo-4,9-dihydro-1H-naphthol[2,3-d]imidazole-3-iodide] | 6.8 µM | 61 µM | 0.09 µM | 28 µM |  |  |  | 
Cc1cc(C)c(-n2c[n+](C)c3c2C(=O)c2ccccc2/C3=N\O)c(C)c1 [Compound 105, (E)-4-(hydroxylimino)-1-sym-trimethyl-3-methyl-9-oxo-4,9-dihydro-1H-naphthol[2,3-d]imidazole-3-iodide] | 6.12 µM | > 100 µM | 1.11 µM | 22.6 µM |  |  |  | 
Cn1c[n+](C)c2c1C(=O)c1ccccc1/C2=N\OCCOCc1ccccc1 [Compound 145, (E)-4-((2-(benzyloxy)ethoxy)imino)-1,3-dimethyl-9-oxo-4,9-dihydro-1H-naphthol[2,3-d]imidazole-3-iodide] |  |  |  |  | 34.8 µM | 45.1 µM | 0.04 µM | 34.2 µM
COCCOCCO/N=C1\c2ccccc2C(=O)c2c1[n+](C)cn2C [Compound 146, (E)-4-((2-(2-methoxyethoxy)ethoxy)imino)-1,3-dimethyl-9-oxo-4,9-dihydro-1H-naphthol[2,3-d]imidazole-3-iodide] |  |  |  |  | 32.8 µM | 24.6 µM | 0.009 µM | 23 µM
C[n+]1cn(-c2ccccc2F)c2c1/C(=N/O)c1ccccc1C2=O [Compound 109, (E)-1-(2-fluorophenyl)-4-(hydroxylimino)-3-methyl-9-oxo-4,9-dihydro-1H-naphthol[2,3-d]imidazole-3-iodide] | 57.8 µM | > 100 µM | 11.2 µM | 50 µM |  |  |  | 
Cn1c[n+](C)c2c1C(=O)c1ccccc1C2=NOCc1ccccc1 [Compound 140, (E) and (Z)-4-((benzyloxy)imino)-1,3-dimethyl-9-oxo-4,9-dihydro-1H-naphthol[2,3-d]imidazole-3-dimethyl sulfate] | 10.9 µM | 34.5 µM | 0.007 µM | 9.8 µM |  |  |  | 
C[n+]1cn(-c2ccc(F)cc2)c2c1/C(=N/O)c1ccccc1C2=O [Compound 111, (E)-1-(4-fluorophenyl)-4-(hydroxylimino)-3-methyl-9-oxo-4,9-dihydro-1H-naphthol[2,3-d]imidazole-3-iodide] | 24.6 µM | > 100 µM | 11.6 µM | 19.7 µM |  |  |  | 
